The text below walks through data of patent US6719976B1, “Peptide-based immunotherapeutic agent for treating allergic diseases” (Meiji Milk Products Co., Ltd., priority 1996, dated 2004).

The subject of test [1] is Cha o 1-specific T cell line. In words: Reactivity of Cha o 1-specific T cell line. It is filed as cell-based, human. The conditions noted are these: from patients with hinoki pollinosis. The source says:
(§1) Two peptides (Cha o 1 #8-Cry j 1 #22 core, Cha o 1 #32-Cry j 1 #22 core) were synthesized by joining Peptide No. 8 (p71-90: […] SEQ ID NO. 11) which is a T cell epitope of hinoki pollen allergen Cha o 1 (Japanese Patent Application N. Hei. 8-15327), or Peptide No. 32 ([…]: […] SEQ ID NO. 12) to Cry j 1 #22 core sequence “FIKRVSNVI”(SEQ ID NO. 7) obtained in Example 14 using a peptide synthesizer (PSSM-8, Shimadzu Seisakusho Ltd.). An RR sequence was inserted between Cha o 1 #8 and Cry j 1 #22 core and between Cha o 1 #32 and Cry j 1 #22 core, that is, Cha o 1 #8-Cry j 1 #22 core (SEQ NO: 4) and Cha o 1 #32-Cry j 1 #22 core (SEQ NO: 5).
(§2) A Cry j 1-specific T cell line and a Cha o 1-specific T cell line were prepared from the patients with cedar pollinosis and hinoki pollinosis, respectively. […] However, these T cell lines all react with the multi-epitope peptide of SEQ NO: 4 and with the multi-epitope peptide of SEQ NO: 5.

Test [2] concerns Cry j 1-specific T cell line. The test is described as follows: Reactivity of Cry j 1-specific T cell line. It is filed as cell-based, human. The conditions noted are these: from patients with cedar pollinosis.
Text: as §1, §2

For another test, the system named is T cell clone PJ7-9. In words: Proliferation response and cytokine production of T cell clone PJ7-9 to analog peptides. It is filed as cell-based, human. The conditions noted are these: unsubstituted 13-residue peptide regarded as 100%. The source says:
Two clones, PJ7-9 and PB10-18, were employed to see if the activity of T cells can be altered by substituting the amino acids of T cell epitope peptide of the Cry j 1 #22 core. T cell clones PJ 7-9 and PB10-12 which react with Cry j 1 Peptide No. 22 p106-120 are restricted by DRB5*0101 and recognize the nine residues of the Cry j 1 #22 core. Each of the nine amino acids residues in the peptides p108-120 (VFIKRVSNVIIHG SEQ ID NO. 13) of 13 residues including the nine residues were substituted with an homologous amino acid and a non-homologous amino acid to produce analog peptides (FIGS. 17 and 18). The reactivity of T cell clones PJ 7-9 and PB 10-18 with these analog peptides was examined in terms of the uptake of [^3H] thymidine. The concentration of cytokine in the reaction solution was measured using a cytokine assay kit manufactured by R & D Systems. The production of IFN-γ, IL-4, IL-2, and IL-5 in the supernatant and the uptake of [^3H] thymidine obtained by reacting the peptide of 13 residues with no amino acid substitution were regarded as 100%. […] Accordingly, the amino acids located in these positions are considered to be important for forming the complex of HLA and T cell receptor molecules via the peptide. […] For the PB 10-18 clone, the uptake of [3H] thymidine is suppressed by substitution of amino acid No. 1, 2, 3, 4, 6, 7, or 8 of Cry j 1 #22 core. The amino acids located in these positions are considered to be important for forming the complex of HLA and T cell receptor molecules via the peptide. It is further observed that the IL-2 production is suppressed by substitution of amino acid No. 6, 7, or 8, as compared to IL-5 production (FIG. 18).

A further test relates to peripheral lymphocytes. The test is described as follows: Proliferation response of peripheral lymphocytes induced by multi-epitope peptide. The test is classed as cell-based, human. The protocol: Peripheral lymphocytes derived from the patients with cedar pollinosis or from healthy subjects were suspended in RPMI-1640 culture medium supplemented with 10% human sera. The suspension was distributed in each well of a 96-well culture plate with a round bottom in a concentration of 2.5×10^5 cells/200 μl. The multi-epitope peptide represented by SEQ NO: 1, either Cry j 1 or Cry j 2, was added to each well to a final concentration of 0.001 to 20 μg/ml of the multi-epitope peptide, 50 μg/ml of Cry j 1 or 2 μg/ml of Cry j 2. The plate was incubated for 6 days. After 0.5 μCi [^3H] thymidine was added to the medium, incubation was continued for a further 16 hours. After the cells were harvested on a glass filter using a cell harvester, the level of [^3H] thymidine taken up into the cells was determined using a liquid scintillation counter.
Peripheral lymphocytes from 17 patients with cedar pollinosis and two healthy subjects were stimulated by 10 μg/ml of the multi-epitope peptide to evaluate T cell response. […] In the 17 patients, a maximum [^3H] thymidine uptake of 9,652 cpm was observed. When [^3H] thymidine uptake of peripheral lymphocytes without antigen stimulation is regarded as 1, the uptake of [^3H] thymidine by peripheral lymphocytes in the presence of an antigen is expressed by a stimulation index (SI). Upon identification of T cell epitopes, SI>2 is regarded to be positive. Similarly, SI>2 is judged to be proliferation responsive to the peptide. […] From the results, the peptide-based immunotherapy is effective when administered to 76.5% of the cedar pollinosis patients.

Another test deals with T cell clones. In words: Recognizing the T cell epitopes in the multi-epitope peptide C.A.#4 by T cell clones. The test is classed as cell-based, human. The conditions noted are these: C.A.#4 10 μg/ml. Here is the method:
The antigenic peptide constituting the multi-epitope peptide C.A.#4 obtained in Example 6 was examined to determine if the antigenic peptide actually functions as a T cell epitope.
On a 96-well micro culture plate, a mixture of 5×10^4 cells of the autologous B cell line previously treated with mitomycin C and 2×10^4 cells of the T cell clone was incubated for 2 days in 0.2 ml 15% serum-supplemented RPMI-1640 medium, together with, as an antigen, either 50 μg/ml of Cry j 1 and 2 μg/ml of Cry j 2, each antigenic peptide constituting the multi-epitope peptide C.A.#4 or 10 μg/ml C.A.#4 multi-epitope peptide produced by gene expression. After 0.5 μCi [^3H] thymidine was added to the medium, incubation was continued for a further 16 hours. After the cells were harvested on a glass filter using a cell harvester, the level of [^3H] thymidine taken up into the cells was determined using a liquid scintillation counter.

The next test relates to human IgE antibody. The test is described as follows: Reactivity of the multi-epitope peptides with human IgE antibody (fluorescence plate assay). The test is classed as binding. Conditions: 21 tested patients with cedar pollinosis. Here is the method: The six multi-epitope peptides (C.A.#1 through C.A.#6) obtained in Example 6 were dissolved in 0.2 M acetate buffer solution (pH 4.5). The solution was dispensed in quantities of 0.1 ml/well in a black plate (manufactured by Dainihon Pharmaceutical Co., Ltd.) then allowed to stand at 4° C. overnight. After the antigen solution was removed, the wells were washed three times with a washing solution and the serum (4-fold dilution) from 29 patients with cedar pollinosis and healthy subjects were each added to separate wells. The system was then reacted at 37° C. for 4 hours. After the sera were removed, the wells were washed three times with a washing solution then reacted with anti-human IgE antibody (made by Pharmacia Inc.) at room temperature overnight. After washing three times with a washing solution, a substrate solution containing 0.1 mM 4-methylumbelliferyl-, β-D-galacto-pyranoside/0.01 M phosphate buffer (pH 7.0), 0.1 M NaCl, 1 mM MgCl2, 0.1% NaN, and 0.1% BSA was added, and the solution was incubated at 37° C. for 2 hours. A solution of 0.1 M glycine/NaOH (pH 10.3) was added to the wells to terminate the reaction. Fluorescent intensity was measured using a fluorophotometer (Labsystems). For positive control to each multi-epitope peptide, biotin-labeled rabbit anti-d epitope IgG and peroxidase-labeled streptoavidin (made by Pierce Inc.) were reacted.

Regarding FIKRVSNVI [Cry j 1 #22 core], the “reactivity of Cha o 1-specific T cell line” value in test [1] is “does not react with”. Further, the “reactivity of Cry j 1-specific T cell line” value in test [2] is “reacts with”.
As to IFSKNLNIKLNMPLYIAGNK [Cha o 1 #8], in test [1], the “reactivity of Cha o 1-specific T cell line” value is “reacts with”. In addition, the “reactivity of Cry j 1-specific T cell line” value in test [2] is recorded as “does not react with”.
In the same order, the values of “SEQ NO: 4: Cha o 1 #8 joined to Cry j 1 #22 core with an RR sequence inserted (IFSKNLNIKLNMPLYIAGNKRRFIKRVSNVI; listed as Cryptomeria japonica)” are “react with” and “react with”.
In the same order, the values of “SEQ NO: 5: Cha o 1 #32 joined to Cry j 1 #22 core with an RR sequence inserted (SSGKNEGTNIYNNNEAFKVERRFIKRVSNVI; listed as Cryptomeria japonica)” are “react with” and “react with”.
With “SIKRVSNVI (listed as Cryptomeria japonica) [Cry j 1 #22 core with the first amino acid F substituted with S]”, in the test with T cell clone PJ7-9, the IFN-γ production entry is reported as “marked increase”, the IL-2 production result is “marked increase” and the “uptake of [3H] thymidine” value was “no change”.
As to SSGKNEGTNIYNNNEAFKVE [Cha o 1 #32], the “reactivity of Cha o 1-specific T cell line” value in test [1] is “reacts with”. The “reactivity of Cry j 1-specific T cell line” value in test [2] is recorded as “does not react with”.

B1: SEQ NO: 1: multi-epitope peptide containing selected T cell epitopes of Cry j 1 and Cry j 2 joined via Arg-Arg (peptide, listed as Cryptomeria japonica)
chain: MKVTVAFNQFGPNRRVFIKRVSNVIIHGRRIDIFASKNFHLQKNTIGTGRRISLKLTSGKIASRRVDGIIAAYQNPASWK
In the case of B1, in the test on peripheral lymphocytes (13 out of the 17 patients, 10 μg/ml), the “patients with proliferation response (SI>2)” value was found to be 76.5%. Besides, the “maximum [3H] thymidine uptake” value in the test with peripheral lymphocytes (17 patients, 10 μg/ml) is 9,652 cpm. Besides, the “proliferation response of peripheral lymphocytes” value with peripheral lymphocytes (one patient and two healthy subjects, 0.001 to 20 μg/ml) is given as “no proliferation response”. For the same molecule, the “patients whose peripheral lymphocytes showed proliferation response” value in the test with peripheral lymphocytes (six patients with cedar pollinosis, 0.001 to 20 μg/ml) is on record as “five out of six”. Also, the “T cell proliferation response of peripheral lymphocytes from healthy subjects” value in the test with peripheral lymphocytes (two healthy subjects, 10 μg/ml) is “No response to T cell proliferation was observed”.

B2: a-Arg-Arg-b-Arg-Arg-d-Arg-Arg-e-Arg-Arg-c (peptide)
peptide: KSMKVTVAFNQFGPNRRPCVFIKRVSNVIIHGRRAPRDSPNTDGIDIFASKNFHRRKDIKLSDISLKLTSGKIASCRRPCQPHFTFKVDGIIA
notes: produced by gene expression
As for B2, the “proliferation response of T cell clone PB14-19 (recognizes Cry j2 p341-355)” value with T cell clones is “somewhat weak”. In addition, the “proliferation response of the T cell clones recognizing the respective epitope” value with T cell clones (clones PB8-3, PB8-34, PB4-22, PB14-5, PB14-3) is “comparable to that of each of the peptides”.

B3: SEQ NO: 2: joining p213-225 and p108-120 of Cry j 1, p182-200 and p79-98 of Cry j 2, p80-95 of Cry j 1, p66-80 of Cry j 1 (peptide, listed as Cryptomeria japonica)
chain: MKVTVAFNQFGPNRRVFIKRVSNVIIHGRRIDIFASKNFHLQKNTIGTGRRWKNNRIWLQFAKLTGFTLMGRRLKMPMYIAGYKTFDGRRVDGIIAAYQNPASWK
With B3, the “stimulation of peripheral lymphocyte samples” value in the test with peripheral lymphocytes (21 tested patients with cedar pollinosis) is given as “stimulated all the peripheral lymphocyte samples”. In addition, the “reaction with the IgE antibody of the patients” value in the test on human IgE antibody is “did not react”.
